Patent publication US20220105051A1, “COMPOUNDS FOR INCREASING MHC-I EXPRESSION AND MODULATING HISTONE DEACETYLASE ACTIVITY” (Cava Healthcare Inc., priority 2019, published 2022)
“Also recorded” adds a separate entry of the source.

Legend:
MHC-I = MHC-I surface expression by flow cytometry; format: cell-based, murine; conditions: for induction of MHC-I expression at the cell surface: 48 hours after treatment, flow cytometry; for MHC class I upregulation: relative to DMSO
Experimental: A9 and TC-1 cell lines were trypsinized (0.05%, Gibco), washed twice with PBS (Gibco), and stained with allophycocyanin (APC) conjugated anti-mouse H-2K^b antibody (1:200, Biolegend) suspended in 150 μL of FACS buffer (PBS+2% FBS) for 20 minutes at 4° C. Cells were washed twice with PBS and re-suspended in 200 μL FACs buffer containing 1 μL of 7-aminoactinomycin (7AAD) viability stain (Biolegend). Flow cytometry was performed on the LSRII (BDBiosciences) and analysis was done using FlowJo (Flow cytometry Analysis Software).
The marine extract library was provided by Dr. Raymond J. Andersen (UBC). The marine invertebrate specimens were collected by SCUBA diving at a 40 metre depth from regions of high marine biodiversity in Papua New Guinea, Indonesia, Thailand, Sri Lanka, Dominica, Brazil, British Columbia, South Africa, and Norway 35. Previously curcuphenol was identified as the active component in one of the marine extracts showing induction of the APM, and since then two new generations of curcuphenol analogues were synthesized in the lab of Dr. Raymond Anderson. To evaluate the ability of these compounds to induce MHC-I surface expression, A9 cells were plated in 6 well plates at 10^5 cells/well and incubated for 24 hours at 37° C. in a 5% CO2 humidified atmosphere. After 24 hours the medium was removed and replaced with medium containing varying concentration of synthesized compounds (6.7 μg/mL, 20 μg/mL, 60 μg/mL). […] Following treatment, cells were incubated for 48 hours at 37° C. with 5% CO2 and humidified atmosphere. After incubation cells were subjected to flow cytometry.
Evaluation of MHC-I surface expression by flow cytometry. LMD:TAP-1 cells or A9 cells were plated in 6 well plates at a concentration of 10,000 cells per well in a 2 mL volume. The next day, cells were treated with the indicated concentrations of the compounds and incubated for 48 hours at 37° C. After incubation, the cells were trypsinized, washed and stained with APC-conjugated anti-mouse MHC-I (specifically anti-H-2K^b) antibody (Biolegend) and assessed by flow cytometry analysis.

HDAC8 = molecular target: T1, HDAC8 (Homo sapiens, UniProt Q9BY41); assay: Individualized HDAC assay, HDAC8; format: biochemical; conditions: purified enzyme; for concentration at which HDAC8 inhibition was seen: 5 to 0.02 μM tested; for HDAC8 activity at higher concentrations: up to 5 μM
T1 construct: purchased BPS Biosciences
T1 sequence (Q9BY41 1-377): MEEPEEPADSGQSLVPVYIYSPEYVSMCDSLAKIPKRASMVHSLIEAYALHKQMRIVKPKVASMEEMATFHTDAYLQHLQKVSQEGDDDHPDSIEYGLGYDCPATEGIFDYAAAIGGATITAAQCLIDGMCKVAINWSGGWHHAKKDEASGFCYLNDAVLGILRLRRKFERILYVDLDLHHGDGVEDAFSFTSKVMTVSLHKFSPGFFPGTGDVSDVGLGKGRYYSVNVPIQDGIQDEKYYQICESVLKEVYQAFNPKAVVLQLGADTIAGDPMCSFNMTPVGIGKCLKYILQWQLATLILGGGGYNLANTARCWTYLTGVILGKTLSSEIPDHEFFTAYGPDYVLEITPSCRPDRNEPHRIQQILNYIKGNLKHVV
Experimental: (§1) The activity of the curcuphenol analogues was assessed with purified HDAC enzymes from all classes I, II, and IV, as well as a select member of HDAC class III (SIRT1). HDACs 1-9 and SIRT1 were evaluated using HDAC Fluorogenic Assay Kits (BPS Biosciences). All assays were completed in black-sided clear-bottom 96 well plates (PerkinElmer), and all treatments were plated in triplicates. Treatment started at 5 μM and was two-fold diluted to a concentration 0.02 μM. The assays were measured using the Synergy HI hybrid reader (BioTek) and Gen5 software (BioTek), excitation was set to 360 nm and detection was measured at 450 nm with a gain of 100. Alternatively HDAC 10 and 11 (BPS Biosciences) were optimized for HDAC concentration using the HDAC-Glo™ I/II Assay and Screening System (Promega). Following optimization each HDAC was run following the Promega protocol in black-sided clear-bottomed 96 well plates in triplicates with same treatments listed above (PerkinElmer). Luminescence was read 30 minutes after HDAC-Glo™I/II reagent was added using the Synergy HI hybrid reader (BioTek) and Gen5 software (Bio-Tek). […] To calculate percent activity, the average of blank wells was subtracted from all treatment groups. The relative mean of activity of the HDAC being measured was determined and all wells that received treatment were divided this average, to give a percentage of activity.
(§2) To evaluate the effect of the compounds on specific HDACs, their activity was assessed with purified HDAC enzymes from all classes I, II, and IV, as well as a select member of HDAC class III (SIRT1). HDACs 1-9 and SIRT1 were evaluated using HDAC Fluorogenic Assay Kits (BPS Biosciences) following the manufacturer's recommendations. Compound treatment started at 5 μM and was two-fold diluted to a concentration 0.02 μM. Alternatively, HDAC 10 and 11 assays (BPS Biosciences) were optimized to be used with the HDAC-Glo™ I/II Assay and Screening System (Promega). The assays were measured using the Synergy HI hybrid reader (BioTek) and Gen5 software (Bio-Tek). […] To calculate the fold change in HDAC activity, the values from each treated well were divided by the relative mean of activity of the specific HDAC being measured.

HDAC5 = molecular target: T2, HDAC5 (Homo sapiens, UniProt Q9UQL6); assay: Individualized HDAC assay, HDAC5; format: biochemical; conditions: purified enzyme, 5 to 0.02 μM
T2 construct: purchased BPS Biosciences
Experimental: as §1, §2

HDAC10 = molecular target: T3, HDAC10 (Homo sapiens, UniProt Q969S8); assay: Individualized HDAC assay, HDAC10 (HDAC-Glo); format: biochemical; conditions: purified enzyme; for HDAC10 activity: 5 to 0.02 μM
T3 construct: purchased BPS Biosciences
T3 sequence (Q969S8 1-669): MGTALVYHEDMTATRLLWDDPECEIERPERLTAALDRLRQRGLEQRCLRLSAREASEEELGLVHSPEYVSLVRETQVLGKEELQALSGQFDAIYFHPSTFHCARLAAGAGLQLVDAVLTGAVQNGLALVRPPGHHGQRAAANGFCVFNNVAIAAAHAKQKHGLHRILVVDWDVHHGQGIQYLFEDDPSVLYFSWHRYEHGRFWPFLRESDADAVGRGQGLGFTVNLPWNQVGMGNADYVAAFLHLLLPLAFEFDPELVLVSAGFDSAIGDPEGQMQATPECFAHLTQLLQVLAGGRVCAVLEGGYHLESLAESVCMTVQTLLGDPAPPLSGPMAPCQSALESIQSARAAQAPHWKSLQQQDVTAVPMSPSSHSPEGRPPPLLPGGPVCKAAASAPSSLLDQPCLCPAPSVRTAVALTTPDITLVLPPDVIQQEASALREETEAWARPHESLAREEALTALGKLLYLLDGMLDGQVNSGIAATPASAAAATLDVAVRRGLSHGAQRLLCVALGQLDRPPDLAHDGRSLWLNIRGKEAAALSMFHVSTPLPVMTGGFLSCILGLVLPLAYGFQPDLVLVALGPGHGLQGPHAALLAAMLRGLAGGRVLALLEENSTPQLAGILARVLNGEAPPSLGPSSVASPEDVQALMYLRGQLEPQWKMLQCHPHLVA
Experimental: as §1, §2

T2 sequence (Q9UQL6 whole entry): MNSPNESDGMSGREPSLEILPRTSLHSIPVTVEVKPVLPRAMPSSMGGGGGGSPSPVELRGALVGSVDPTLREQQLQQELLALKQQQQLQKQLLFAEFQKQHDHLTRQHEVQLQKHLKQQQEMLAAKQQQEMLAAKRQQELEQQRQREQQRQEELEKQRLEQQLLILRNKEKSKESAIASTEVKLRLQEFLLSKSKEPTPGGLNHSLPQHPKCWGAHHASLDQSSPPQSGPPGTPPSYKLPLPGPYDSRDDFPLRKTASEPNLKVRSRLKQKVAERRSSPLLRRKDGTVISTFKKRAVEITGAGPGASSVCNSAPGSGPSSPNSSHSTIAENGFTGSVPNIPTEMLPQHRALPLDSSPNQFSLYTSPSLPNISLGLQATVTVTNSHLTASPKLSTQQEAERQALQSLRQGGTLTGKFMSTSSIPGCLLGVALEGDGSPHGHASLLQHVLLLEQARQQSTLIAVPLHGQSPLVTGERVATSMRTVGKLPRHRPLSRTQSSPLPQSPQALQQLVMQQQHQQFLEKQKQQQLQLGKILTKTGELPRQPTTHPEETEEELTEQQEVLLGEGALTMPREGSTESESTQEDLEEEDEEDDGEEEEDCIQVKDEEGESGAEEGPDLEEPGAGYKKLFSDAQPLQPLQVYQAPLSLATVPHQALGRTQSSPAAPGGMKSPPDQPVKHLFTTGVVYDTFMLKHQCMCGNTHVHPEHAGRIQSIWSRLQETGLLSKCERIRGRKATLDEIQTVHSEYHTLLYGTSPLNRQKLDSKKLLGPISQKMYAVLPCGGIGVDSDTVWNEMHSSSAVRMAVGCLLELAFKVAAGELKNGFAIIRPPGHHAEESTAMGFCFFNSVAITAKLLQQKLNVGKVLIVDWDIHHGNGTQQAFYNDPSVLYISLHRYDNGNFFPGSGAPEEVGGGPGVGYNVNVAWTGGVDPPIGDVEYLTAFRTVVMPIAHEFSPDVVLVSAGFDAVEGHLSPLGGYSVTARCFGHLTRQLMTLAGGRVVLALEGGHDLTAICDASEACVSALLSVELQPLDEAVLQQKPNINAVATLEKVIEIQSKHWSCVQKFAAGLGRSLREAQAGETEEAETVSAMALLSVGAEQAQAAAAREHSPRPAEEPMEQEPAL

SMILES | concentration of optimum MHC upregulation and live cell frequency (MHC-I; A9 cells, 48 hours) [µmol] | induction of MHC-I expression at the cell surface (MHC-I; A9 cells) | MHC class I upregulation (MHC-I; A9 cells, 48 hours, 0.032, 0.064 and 0.128 μmol) | MHC class I upregulation (MHC-I; A9 cells, 48 hours, 0.055, 0.064 and 0.071 umol) | surface MHC I molecules (MHC-I; cancer cell lines in vitro) | effect on HDAC8 activity (HDAC8) | HDAC5 activity (HDAC5) | HDAC10 activity (HDAC10) | concentration at which HDAC8 inhibition was seen (HDAC8) [µM] | HDAC8 activity at higher concentrations (HDAC8) | concentration range of HDAC10 enhancement (HDAC10) | HDAC5 activity (HDAC5; listed as PO-3-97-1) | HDAC10 activity (HDAC10; listed as PO-3-97-1)
CC(C)=CCC[C@H](C)c1ccc(C)cc1O [Curcuphenol, curcuphenol] | 0.064 | enhances the expression of MHC-I | upregulated | upregulated | significantly increased | selectively inhibits | activates | activates |  |  |  |  | 
CC(C)=CCCCc1ccc(C)cc1O [P02-113] |  | strong induction of MHC-I; also recorded: greatest consistent induction of MHC-I expression; also recorded: highest expression of MHC-I |  |  |  | act as inhibitors to HDAC8; also recorded: slight inhibition at lower concentrations | enhanced; also recorded: increase in activity levels | enhanced; also recorded: increase in activity levels | ≤ 0.3 | no change in HDAC8 activity | enhanced at all concentrations tested |  | 
COc1ccc(C(C)CCC=C(C)C)c(O)c1 (stereo not drawn) [P03-97-1] |  | strong induction of MHC-I; also recorded: greatest consistent induction of MHC-I expression; also recorded: highest expression of MHC-I |  |  |  | act as inhibitors to HDAC8; also recorded: slight inhibition at lower concentrations | enhanced; also recorded: increase in activity levels | enhanced; also recorded: increase in activity levels | 0.02 | no change in activity | enhanced at all concentrations tested | enhanced | enhanced
